# Data: patent publication EP0819688A1, “4-substituted benzofuranes” (Byk Gulden Lomberg Chemische Fabrik GmbH, priority 1996, dated 1998)
# Tested on: PDE IV
# Experiment: Inhibition of PDE IV activity (method of Bauer and Schwabe, adapted to microtiter plates)
# Assay type: biochemical
# Conditions: Hemmung der PDE IV-Aktivität
# Excerpt: Der Aktivitätstest wurde nach der Methode von Bauer und Schwabe durchgeführt, die auf Mikrotiterplatten adaptiert wurde (Naunyn-Schmiedeberg's Arch. Pharmacol. 1980, 311, 193-198). Hierbei erfolgt im ersten Schritt die PDE-Reaktion. In einem zweiten Schritt wird das entstandene 5'-Nukleotid durch eine 5'-Nukleotidase des Schlangengiftes von ophiophagus hannah (King Cobra) zum ungeladenen Nukleosid gespalten. Im dritten Schritt wird das Nukleosid auf Ionenaustauschsäulen vom verbliebenen geladenen Substrat getrennt. Die Säulen werden mit 2 ml 30 mM Ammoniumformiat (pH 6,0) direkt in Minivials eluiert, in die noch 2 ml Szintillatorflüssigkeit zur Zählung gegeben wird.
# Die für die erfindungsgemäßen Verbindungen ermittelten Hemmwerte ergeben sich aus der folgenden Tabelle A, in der die Nummern der Verbindungen den Nummern der Beispiele entsprechen. Tabelle A
row,SMILES,PDE4 -logIC50
1,"COc1ccc(/C=C(\C#N)c2ccncc2)c2cc(C3CCCC3)oc12 [Verbindung 7, (Z)-4-[2-Cyano-2-(pyrid-4-yl)ethenyl]-2-cyclopentyl-7-methoxy-benzofuran]","6,29"
2,"COc1ccc(/C=C/c2ccncc2)c2cc(C3CCCC3)oc12 [Verbindung 3, (E)-2-Cyclopentyl-4-[2-(pyrid-4-yl)ethenyl]-7-methoxybenzofuran]","6,77"
3,"COc1ccc(CCc2ccncc2)c2cc(C(C)C)oc12 [Verbindung 6, 2-Isopronyl-7-methoxy-4-[2-(pyrid-4-yl)ethyl]benzofuran]","8,22"
4,"COc1ccc(CC(C#N)c2ccncc2)c2cc(C(C)C)oc12 (racemic) [Verbindung 12, (±)-4-[2-Cyano-2-(pyrid-4-yl)ethyl]-2-isopropyl-7-methoxybenzofuran]","7,26"
5,"COc1ccc(CC(C#N)c2ccncc2)c2cc(C3CCCC3)oc12 (racemic) [Verbindung 10, (±)-4-[2-Cyano-2-(pyrid-4-yl)ethyl]-2-cyclopentyl-7-methoxybenzofuran]","6,56"
6,"COc1ccc(/C=C(\C#N)c2cccnc2)c2cc(C3CCCC3)oc12 [Verbindung 8, (Z)-4-[2-Cyano-2-(pyrid-3-yl)ethenyl]-2-cyclopentyl-7-methoxy-benzofuran]","6,51"
7,"COc1ccc(C(O)Cc2ccncc2)c2cc(C(C)C)oc12 (racemic) [Verbindung 2, (±)-4-[1-Hydroxy-2-(pyrid-4-yl)ethyl]-2-isopropyl-7-methoxybenzofuran]","6,86"
8,"COc1ccc(/C=C/c2ccncc2)c2cc(C(C)C)oc12 [Verbindung 4, (E)-2-Isopropyl-4-[2-(pyrid-4-yl)ethenyl]-7-methoxybenzofuran]","7,21"
9,"COc1ccc(CCc2ccncc2)c2cc(C3CCCC3)oc12 [Verbindung 5, 2-Cyclopentyl-7-methoxy-4-[2-(pyrid-4-yl)ethyl]benzofuran]","7,97"
10,"COc1ccc(C=C(C#N)c2ccncc2)c2cc(C(C)C)oc12 (mixture of isomers) [Verbindung 9, (E/Z)-4-[2-Cyano-2-(pyrid-4-yl)ethenyl]-2-isopropyl-7-methoxybenzofuran]","6,64"
11,"COc1ccc(CC(C#N)c2cccnc2)c2cc(C3CCCC3)oc12 (racemic) [Verbindung 11, (±)-4-[2-Cyano-2-(pyrid-3-yl)ethyl]-2-cyclopentyl-7-methoxybenzofuran]","6,99"
12,COc1ccc(C(O)Cc2ccncc2)c2cc(C3CCCC3)oc12 (racemic) [Verbindung 1],"6,45"
